PubChem BioAssay AID1189 (EPA DSSTox, 2008)
Activity calls are given as the source filed them.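 How the source made its calls: active means a tumor-causing dose value with its tumor site reported for any sex and species group of a rodent or other animal cancer study; inconclusive means only studies judged inadequate by the national testing program; inactive means tested in at least one study, none positive.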

Test: DSSTox (CPDBAS) Carcinogenic Potency Database Summary SingleCellCall Results
Details: animal chronic carcinogenicity bioassays, CPDB summary call
Description: The Carcinogenic Potency Database (CPDB) is a unique and widely used international resource of the results of over 6500 chronic, long-term animal cancer tests on over 1500 chemical substances. The CPDB provides easy access to the bioassay literature, with qualitative and quantitative analyses of both positive and negative experiments that have been published over the past 50 years in the general literature and by the National Cancer Institute/National Toxicology Program. The CPDB standardizes the diverse literature of cancer bioassays that vary widely in protocol, histopathological examination and nomenclature, and in the published author's choices of what information to provide in their papers. Results are reported in the CPDB for tests in rats, mice, hamsters, dogs, and nonhuman primates, and are based on the most positive result among all experiments for each sex-species. The DSSTox CPDBAS (all species) file incorporates data from the CPDB Summary Tables for the full list of over 1500 chemical substances tested in at least one species. A summary SingleCellCall, based on experimental bioassay results of one or more species, is provided for the entire DSSTox CPDBAS file (see Source URL).
An assignment of categorical carcinogenic activity based on minimal evidence for or against activity. […] Associated TD50 values and tumor site details for the relevant species/sex experiment supporting this overall CPDBAS SingleSiteCall are provided in the full CPDBAS DSSTox file (see Comment) and the corresponding CPDBAS Species Bioassay in PubChem.
For `c1ccc(Nc2ccc3ccccc3c2)cc1`, the outcome was “inactive”.
With `Nc1ccc2c(c1)C(=O)c1ccccc1C2=O` the outcome was “active”.
In the case of `C=Cc1cccc(C)c1`, the outcome is reported as “inactive; active”.
For `COC(C)(C)C`, the outcome was “active”.
For `Cl`, the outcome was “inactive”.
For `C[C@H](CCC(=O)O)[C@H]1CC[C@H]2[C@@H]3CC[C@@H]4C[C@H](O)CC[C@]4(C)[C@H]3CC[C@]12C`, the outcome was “inactive”.
For `CN(C)P(=O)(N(C)C)N(C)C`, the outcome was “active”.
In the case of `C=C1CC[C@H](O)C/C1=C/C=C1\CCC[C@]2(C)[C@@H]([C@H](C)/C=C/[C@H](C)C(C)C)CC[C@@H]12`, the outcome is reported as “inactive”.
For `O=C1N(CCO)CCN1/N=C/c1ccc([N+](=O)[O-])o1`, the outcome was “active”.
For `O=[N+]([O-])c1cccc2ccccc12`, the outcome was “inactive”.
With `C[C@@H]1O[C@@]2(CS1)CN1CCC2CC1` the outcome was “inactive”.
With `N[C@@H](CCC(=O)NNc1ccc(C(=O)O)cc1)C(=O)O` the outcome was “active; inactive”.
In the case of `CN(N=O)C(N)=O`, the outcome is reported as “active; inactive”.
In the case of `CCCN=[N+]([O-])CCC`, the outcome is reported as “active”.
For `O=C(Nc1ccc([N+](=O)[O-])cc1Cl)c1cc(Cl)ccc1O`, the outcome was “inactive”.
For `Cc1cc(C)c(S(=O)(=O)O)cc1N=Nc1cc(S(=O)(=O)O)c2ccccc2c1O`, the outcome was “active”.
In the case of `CC(C)=NNc1ncc(-c2ccc([N+](=O)[O-])o2)s1`, the outcome is reported as “active; inactive”.
With `C=C(C)C` the outcome was “active”.
For `O=NN1CCNCC1`, the outcome was “active; inactive”.
In the case of `O=NN1CCOC1=O`, the outcome is reported as “active; inactive”.
For `O=S(=O)(Oc1ccc(Cl)cc1Cl)c1ccccc1`, the outcome was “inactive”.
In the case of `O=C(O[C@@H]1Cc2c(O)cc(O)cc2O[C@@H]1c1cc(O)c(O)c(O)c1)c1cc(O)c(O)c(O)c1`, the outcome is reported as “inactive”.
With `CC(O)CN(CCO)N=O` (stereo unspecified) the outcome was “active”.
With `Clc1ccc(C(c2ccc(Cl)cc2)C(Cl)(Cl)Cl)cc1` the outcome was “active”.
With `Cc1cccc(N)c1` the outcome was “active; inactive”.
For `CC(=O)NN`, the outcome was “active”.
In the case of `F`, the outcome is reported as “inactive”.
With `N[C@@H](Cc1c[nH]c2ccccc12)C(=O)O` the outcome was “inactive”.
In the case of `C=C(C)[C@H]1Cc2c(ccc3c2O[C@@H]2COc4cc(OC)c(OC)cc4[C@@H]2C3=O)O1`, the outcome is reported as “inactive; active”.
In the case of `O=C(Nc1cccc2c(=O)cc(-c3nn[nH]n3)oc12)c1ccc(OCCCCc2ccccc2)cc1`, the outcome is reported as “inactive; active”.
In the case of `COc1ccc(C(=O)Nc2c(Cl)cncc2Cl)cc1OC1CCCC1`, the outcome is reported as “active”.
In the case of `CC/C(=C(/CC)c1ccc(O)cc1)c1ccc(O)cc1`, the outcome is reported as “active”.
In the case of `CN(N=O)C(=O)N[C@@H]1[C@@H](O)[C@H](O)[C@@H](CO)O[C@@H]1O`, the outcome is reported as “active”.
With `O.O.O.O.O.O.O=S(=O)([O-])[O-].[Ni+2]` the outcome was “inactive”.
In the case of `CN(C)CCN(Cc1ccco1)c1ccccn1`, the outcome is reported as “inactive; active”.
In the case of `Oc1c(Cl)cc(Cl)cc1Sc1cc(Cl)cc(Cl)c1O`, the outcome is reported as “inactive”.
For `Cc1cc(O)cc(C)c1N(C)C`, the outcome was “inactive; active”.
With `NNc1nc(-c2ccc(N)cc2)cs1` the outcome was “active”.
In the case of `NC(=S)Nc1cccc2ccccc12`, the outcome is reported as “inactive”.
For `COc1ccc(C(=O)/C(Br)=C\C(=O)O)cc1`, the outcome was “active”.
In the case of `Nc1ccc2c(n1)[nH]c1ccccc12`, the outcome is reported as “active”.
With `CN1C(=O)CN=C(c2ccccc2)c2cc(Cl)ccc21` the outcome was “inactive”.
With `Nc1cccc2ccccc12` the outcome was “active”.
With `CC(C)[N+](=O)[O-]` the outcome was “inactive; active”.
With `C=CC` the outcome was “inactive”.
For `COc1c(Cl)c(Cl)c([N+](=O)[O-])c(Cl)c1Cl`, the outcome was “inactive”.
In the case of `CCCCC/C=C\C/C=C\CCCCCCCC(=O)OC`, the outcome is reported as “inactive”.
With `O=c1cc[nH]c(=S)[nH]1` the outcome was “active; inactive”.
With `S=C(S)NCCNC(=S)S` the outcome was “inactive”.
In the case of `O=[As]O`, the outcome is reported as “inactive”.
For `CCCCCC(/C=C/C=C\CCCCCCCC(=O)OC)OO` (stereo unspecified), the outcome was “inactive”.
For `Clc1ccccc1`, the outcome was “active; inactive”.
With `O=S1(=O)CC=CC1` the outcome was “inactive”.
With `NNc1nc(-c2ccccc2)cs1` the outcome was “inactive”.
With `NC(=O)c1ccccc1C(N)=O` the outcome was “inactive”.
For `O=S(=O)(O)c1cc(S(=O)(=O)O)c2c(N=Nc3ccccc3)c(O)ccc2c1`, the outcome was “inactive”.
With `CCNc1nc(Cl)nc(NCC)n1` the outcome was “inactive”.
With `CC(=O)NNC(=O)c1ccncc1` the outcome was “active”.
With `CN(C)CCN(Cc1ccsc1)c1ccccn1` the outcome was “inactive; active”.
For `O=C1c2ccccc2CN2C(=O)c3ccccc3CN12`, the outcome was “active”.
In the case of `CCCCN(N)C=O`, the outcome is reported as “active”.
With `[N-]=[N+]=CC(=O)OC[C@H](N)C(=O)O` the outcome was “active”.
With `Nc1ccc(-c2ccc(N)c(O)c2)cc1O` the outcome was “active”.
For `CN(Cc1cnc2nc(N)nc(N)c2n1)c1ccc(C(=O)N[C@@H](CCC(=O)O)C(=O)O)cc1`, the outcome was “inactive”.
In the case of `CN(C)c1ccccc1`, the outcome is reported as “active”.
With `Nc1ccc(N=Nc2ccc(-c3ccc(N=Nc4c(S(=O)(=O)O)cc5cc(S(=O)(=O)O)c(N=Nc6ccccc6)c(O)c5c4N)cc3)cc2)c(N)c1` the outcome was “active; inactive”.
For `Cc1ccc(OP(=O)(Oc2ccc(C)cc2)Oc2ccc(C)cc2)cc1`, the outcome was “inactive”.
In the case of `OCl`, the outcome is reported as “inactive”.
With `CC(C)(Oc1ccc(C2CCCc3ccccc32)cc1)C(=O)O` (stereo unspecified) the outcome was “active; inactive”.
With `Nc1ccc(Oc2ccc(N)c(N)c2)cc1` the outcome was “active”.
In the case of `Cc1cc(C)nc(-c2ccc([N+](=O)[O-])o2)n1`, the outcome is reported as “active”.
For `CCN(CC)C(=S)S[Se](SC(=S)N(CC)CC)(SC(=S)N(CC)CC)SC(=S)N(CC)CC`, the outcome was “active; inactive”.
In the case of `CCN(Cc1cccc(S(=O)(=O)[O-])c1)c1ccc(C(=C2C=CC(=[N+](C)C)C=C2)c2ccc(N(CC)Cc3cccc(S(=O)(=O)O)c3)cc2)cc1`, the outcome is reported as “active”.
In the case of `CCCCCCCCCCCCCCCC(=O)CC(=O)CCCCCCCCCCCCCCC`, the outcome is reported as “active”.
In the case of `O=C1CCc2ccccc2O1`, the outcome is reported as “active; inactive”.
In the case of `Nc1cc(Cl)c(-c2cc(Cl)c(N)cc2Cl)cc1Cl`, the outcome is reported as “inactive”.
In the case of `CCOC(=O)CC(SP(=S)(OC)OC)C(=O)OCC` (stereo unspecified), the outcome is reported as “inactive”.
In the case of `Cc1ncc[nH]1`, the outcome is reported as “active”.
For `CNC(=O)Oc1cccc2ccccc12`, the outcome was “active”.
In the case of `c1ccc2c(c1)cc1ccc3cccc4ccc2c1c34`, the outcome is reported as “active; inactive”.
In the case of `NC(=O)N(CC(=O)O)N=O`, the outcome is reported as “active; inactive”.
For `CN(C)C(=O)Nc1ccc(Cl)c(Cl)c1`, the outcome was “inactive”.
For `CCN(CC)C(C)=O`, the outcome was “active”.
With `FC(F)OC(F)(F)C(F)Cl` (stereo unspecified) the outcome was “inactive”.
In the case of `Clc1ccc(C(c2ccccc2Cl)C(Cl)Cl)cc1` (stereo unspecified), the outcome is reported as “inactive”.
In the case of `CNC(=O)O/N=C/C(C)(C)SC`, the outcome is reported as “inactive”.
For `[O]=[Bi]`, the outcome was “inactive; active”.
In the case of `CN(CCO)N=O`, the outcome is reported as “active”.
With `O=C1CCC(=O)O1` the outcome was “inactive”.
With `CCOC(N)=O` the outcome was “active; inactive”.
With `ClC(Cl)(Cl)C(Cl)(Cl)Cl` the outcome was “active”.
For `O=C(Nc1ccc2c(c1)Cc1ccccc1-2)C(F)(F)F`, the outcome was “active”.
For `CC(=O)OC(OC(C)=O)c1ccc([N+](=O)[O-])o1`, the outcome was “inactive”.
In the case of `CC(C)Nc1nc(Cl)nc(NC(C)C)n1`, the outcome is reported as “inactive”.
For `COc1ccccc1N`, the outcome was “active”.
In the case of `O=C1c2ccccc2C(=O)c2c(O)cccc21`, the outcome is reported as “active”.
For `Nc1nc(-c2ccc([N+](=O)[O-])cc2)cs1`, the outcome was “active”.
In the case of `C[C@](N)(Cc1ccc(O)c(O)c1)C(=O)O`, the outcome is reported as “inactive”.
With `COC(=O)c1ccc(C(=O)OC)cc1` the outcome was “inactive; active”.
In the case of `c1ccncc1`, the outcome is reported as “active”.
For `CCCCOC(=O)c1ccccc1C(=O)OCc1ccccc1`, the outcome was “active”.
In the case of `CC(C(O)c1ccccc1)N(C)N=O` (stereo unspecified), the outcome is reported as “active”.
With `Cn1nc(CO)nc1NCCCOc1cccc(CN2CCCCC2)c1` the outcome was “active”.
For `C1C2OC2C2C1C1CC2C2OC12` (stereo unspecified), the outcome was “inactive”.
With `CCCCCCCC(=O)OCC(COC(=O)CCCCCCC)OC(=O)CCCCCCC` the outcome was “active”.
For `Nc1ccc2oc3ccccc3c2c1`, the outcome was “active”.
For `ClC(Cl)Cl`, the outcome was “active”.
In the case of `C[C@]12CC[C@@H]3c4ccc(O)cc4CC[C@H]3[C@@H]1CC[C@@H]2O`, the outcome is reported as “inactive”.
For `NC(=O)CCCCn1ccc(NC(N)=NCC(F)(F)F)n1`, the outcome was “active; inactive”.
For `Cc1c(COC(=O)C2C(/C=C(\Cl)C(F)(F)F)C2(C)C)cccc1-c1ccccc1` (stereo unspecified), the outcome was “inactive; active”.
For `O=C(O)CCCc1ccc(N(CCCl)CCCl)cc1`, the outcome was “active”.
For `Oc1ccc(-c2ccccc2)cc1`, the outcome was “inactive; active”.
With `Clc1ccc(-c2cccc(Cl)c2Cl)c(Cl)c1` the outcome was “active”.
In the case of `O=[N+]([O-])c1cccc2cccnc12`, the outcome is reported as “active; inactive”.
For `O=[As](O)(O)O`, the outcome was “inactive”.
In the case of `CN[C@@H](C)[C@H](O)c1ccccc1`, the outcome is reported as “inactive”.
With `CCCCCNN` the outcome was “active”.
With `O=C([O-])c1cc(N=Nc2ccc(-c3ccc(N=Nc4c(O)ccc(N=Nc5cc(S(=O)(=O)[O-])ccc5[O-])c4[O-])cc3)cc2)ccc1O.[Cu+2].[Na+].[Na+]` the outcome was “active; inactive”.
In the case of `CC(CN1c2ccccc2Sc2ccccc21)N(C)C` (stereo unspecified), the outcome is reported as “inactive”.
For `OC[C@@H](O)[C@H]1O[C@@H]2O[C@H](C(Cl)(Cl)Cl)O[C@@H]2[C@H]1O`, the outcome was “inactive”.
In the case of `CC(C)(C)NCC(O)c1cc(O)cc(O)c1` (stereo unspecified), the outcome is reported as “active”.
